Results published in patent US8785388B2, “TAT-BH3 methods for treating arthritis” (Saint Louis University, priority 2007, dated 2014).
Square brackets hold non-standard residues; d marks the D form. Peptide text beside a SMILES is read from it. Orn = NCCC[C@H](N)C(=O)O

Legend:
[1] = test system: K/B×N serum transfer-induced arthritis; test: K/B×N serum transfer-induced arthritis, ankle circumference (joint swelling); assay type: in vivo, mice; details: for reduction of development of arthritis: day 4
Excerpt: The seven-week-old progeny from homozygous KRN TCR transgenic mice (C57BL/6 background) crossed with non-obese diabetes (NOD) mice (K/B×N) were euthanized, peripheral blood was isolated, and serum were collected and pooled. One hundred and fifty microliters of K/B×N serum were intraperitoneally injected on each flank of 6-week old wt mice.
(§1) At each time point and prior to euthanasia, the degree of arthritis as indicated by joint swelling was quantitated by measuring two perpendicular diameters of the ankles using a caliper (Lange Caliper: Cambridge Scientific Industries, Cambridge Mass.). Joint circumference was calculated using the geometric formula of ellipse circumference (2πX √(a^2+b^2)/2). Following euthanasia, serum was isolated from peripheral blood by cardiac stick and ankle joints were removed. One of the ankle joints was fixed in 10% neutral buffered formalin for 24 hours, decalcified in EDTA-decalcification buffer for two weeks, embedded in paraffin, and sectioned. The other ankle joint was placed in liquid nitrogen, grounded into a fine powder by mortal and pestle, digested in protein lysis buffer ([…], 0.5% NP-40, 50 mM Tris, and 2 mM EDTA) in the presence of phosphatase and protease inhibitors, and homogenized on ice for 20 seconds. To examine any toxicity due to systemic delivery of TAT-Bim peptides, alkaline phosphatase (ALP), […] (AST), alanine aminotransferase (ALT), and blood urea nitrogen levels were measured.
Therefore, peptides to the BH3 domain of Bim were used that are fused to polycationic peptide derived from HIV-1 TAT. These peptides have shown to activate Bak and Bax, suppress Bcl-2 and Mcl-1, induce mitochondrial permeability, and release mitochondrial cytochrome c. Mice were intraperitoneally injected with K/B×N serum to induce the effector phase of inflammatory arthritis.

[2] = test system: K/B×N serum transfer-induced arthritis; test: Histopathological scoring of ankle sections (H&E, safranin O/methyl green); assay type: in vivo, mice
Protocol: Paraffin embedded ankle or liver sections were stained with hematoxylin and eosin (H&E), Safranin O and methyl green. Histopathological scoring was performed and ankle sections were evaluated by examining at least 3 sections/ankle and 3 fields/section at 400× magnification. H&E ankle sections were scored on a 0-5 scale for inflammation, with 0=normal, 1=minimal infiltration, 2=mild infiltration, 3=moderate infiltration, […], mad 5=severe infiltration. Bone erosion was scored on a 0-5 scale by viewing H&E ankle sections, with 0=no or normal bone resorption, 1=small areas of resorption, 2=more numerous areas of resorption, 3=obvious resorption, 4=full thickness defects in the bone without distortion of the profile, 5=full thickness defects in the bone with distortion of the profile. H&E ankle stained sections were scored on a 0-5 scale for pannus formation, with 0=no pannus formation, 1=minimal pannus formation, 2=mild pannus formation, 3=moderate pannus formation, 4=marked pannus formation, and 5=severe pannus formation. H&E and Safranin 0 and methyl green sections were scored on a 0-5 scale for cartilage damage, with 0=no damage, 1-2=superficial cartilage destruction, 3-4=cartilage destruction to middle zone, 5=cartilage destruction to tide mark. Polymorphonuclear (PMN) leukocyte infiltration: 0=no PMNs, 1=rare scattered PMNs, 2=more frequent scattered PMNs, 3=small clusters of PMNs, 4=larger clusters of PMNs, mad 5=sheets of PMNs (abscess). Histopathological scoring was conducted on an Olympus BX40 microscope (1000×). Photographs were taken on a Nikon microscope equipped with the Nikon digital camera DMX 1200.
To accurately assess the degree of inflammation and destruction of cartilage and bone, ankle sections were examined using a histopathological scoring system on hematoxylin and eosin (H& E) or safranin O-methyl green stained ankle sections.

IL-1β, TNFα, MCP-1, KC = test: Circulating cytokine levels in serum; assay type: in vivo, mice; details: between saline, TAT-inactive BH3 and TAT-BH3 groups
Protocol: as §1
TAT-BH3 peptides treatment reduces the numbers of myeloid cells in arthritic joints. […] To this end, the numbers of polymorphonuclear cell and macrophages in saline and BH3 peptide arthritic mice were quantified. […]

peripheral blood cells [3] = test: Peripheral blood cell counts (flow cytometry, hematology analyzer); assay type: in vivo, mice
Protocol: Peripheral blood and bone marrow were isolated from mice following euthanasia. Total leukocyte numbers were determined using an automated hematology analyzer ABX Pentra 60 (Diamond Diagnostics, Inc, Holliston, Mass.). The red blood cells in peripheral blood were lysed and the remaining cells were fixed with BD FACS lysing solution (BD Biosciences, Pharmingen) following incubation with antibodies. Bone marrow cells were isolated by flushing Dulbecco's Modified Eagle Medium (DMEM) (Gibco, Grand Island, N.Y.) through the tibias and red blood cells were lysed with BD PharM Lyse (BD Biosciences, Pharmingen) prior to incubation with antibodies. Cells with incubated with Fc Block (BD Biosciences, Pharmingen) then stained with fluorochrome conjugated antibodies to CD45, CD11b, Gr-1, CD62L, Ly-6C, Ly-6G, CD31 (BD Biosciences, Pharmingen) or isotype control antibodies for 30 minutes. Cells were acquired on a BD LSRII (BD Biosciences, Pharmingen) using Diva Software at the Saint Louis University Core Flow Cytometry Facility. All analysis was performed using FlowJo software (Tree Star Inc.).
Peripheral blood was isolated by cardiac sticks. Cells were blocked for 10 minutes with Fc block and then stained with anti-CD45, anti-CD19, anti-CD3, anti-CD4, anti-CDS, anti-CD11b, anti-Gr-1, and anti-CD62L antibodies for 30 minutes. Platelets and RBCs were determined on an automated hematology analyzer ABX Pentra 60. Following incubation with antibodies red blood cells were lysed and cells were fixed with Becton Dickenson FACS lysing solution.

Mcl-1 = Mcl-1 (Homo sapiens, UniProt Q07820); test: Affinity for Mcl-1; assay type: binding; details: statement without data
peripheral blood cells [4] = test: Peripheral blood cell counts (flow cytometry, hematology analyzer); assay type: in vivo, mice; details: as compared to TAT-inactive BH3 and saline
[5] = as compared to saline or TAT-inactive BH3
[6] = as compared to TAT-inactive BH3 and saline
[7] = peripheral blood, hematology analyzer, mean ± standard error
[8] = peripheral blood, mean ± standard error

Mcl-1, sequence (Q07820 whole entry, species assumed): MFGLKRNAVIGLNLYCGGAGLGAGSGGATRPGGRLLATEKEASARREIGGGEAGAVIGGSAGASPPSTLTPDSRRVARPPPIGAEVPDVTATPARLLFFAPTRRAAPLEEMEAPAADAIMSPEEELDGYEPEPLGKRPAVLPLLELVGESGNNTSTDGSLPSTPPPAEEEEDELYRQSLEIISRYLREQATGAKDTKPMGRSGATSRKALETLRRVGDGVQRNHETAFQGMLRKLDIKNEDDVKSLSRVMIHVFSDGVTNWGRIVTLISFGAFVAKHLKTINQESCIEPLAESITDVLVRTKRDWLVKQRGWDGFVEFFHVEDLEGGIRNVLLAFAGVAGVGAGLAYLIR

CC[C@H](C)[C@H](NC(=O)[C@H](CCCNC(=N)N)NC(=O)[C@H](CCCNC(=N)N)NC(=O)[C@H](CC(C)C)NC(=O)[C@H](CCC(=O)O)NC(=O)[C@H](CCC(N)=O)NC(=O)[C@H](C)NC(=O)[C@@H](NC(=O)[C@H](Cc1c[nH]c2ccccc12)NC(=O)[C@@H](NC(=O)[C@H](CCC(=O)O)NC(=O)[C@H](CCCNC(=N)N)NC(=O)[C@H](CCCNC(=N)N)NC(=O)[C@H](CCCNC(=N)N)NC(=O)[C@H](CCCN)NC(=O)[C@H](CCCNC(=N)N)NC(=O)[C@H](CCCNC(=N)N)NC(=O)[C@H](CCCCN)NC(=O)[C@H](CCCCN)NC(=O)[C@H](CCCNC(=N)N)NC(C)=O)[C@@H](C)CC)[C@@H](C)CC)C(=O)NCC(=O)N[C@@H](CC(=O)O)C(=O)N[C@@H](CCC(=O)O)C(=O)N[C@@H](Cc1ccccc1)C(=O)N[C@@H](CC(N)=O)C(=O)N[C@@H](C)C(=O)N[C@@H](Cc1ccc(O)cc1)C(=O)N[C@@H](Cc1ccc(O)cc1)C(=O)N[C@@H](C)C(=O)N[C@@H](CCCNC(=N)N)C(=O)O [TAT-BH3] (Ac-RKKRR[Orn]RRREIWIAQELRRIGDEFNAYYAR-OH)
change in ankle circumference ([1]; day 2 after K/B×N serum, 2 mg/kg i.p.): 0.1 mm | reduction of development of arthritis ([1]; as compared to TAT-inactive BH3 peptide): 72% | reduction of development of arthritis ([1]; as compared to saline): 80% | reduction in PMN score ([2]; as compared to TAT-inactive BH3 or saline): 69% | decrease in bone erosion score [2, 5]: 71% | reduction in inflammation [2, 5]: 72% | suppression of pannus formation [2, 5]: 79% | circulating levels of IL-1β, TNFα, MCP-1, and KC in serum (IL-1β, TNFα, MCP-1, KC): no differences | decrease in platelets (peripheral blood cells [3]; as compared to TAT-inactive BH3): 29% | number of circulating leukocytes (peripheral blood cells [3]; [6]): did not reduce | number of red blood cells (peripheral blood cells [3]; [6]): did not reduce | decrease in numbers of neutrophils in peripheral blood (peripheral blood cells [3]; as compared to TAT-inactive peptide and saline): 40% | decrease in platelets (peripheral blood cells [3]; as compared to saline): 23% | effect on platelet counts (peripheral blood cells [3]; general statement): minimal effect | Platelets (peripheral blood cells [3]; [7]): 930.3 ± 55.32 (1E6) | RBCs (peripheral blood cells [3]; [7]): 9.60 ± 0.42 (1E6) | B-cells+ (peripheral blood cells [3]; [8]): 2.51 ± 0.11 (1E6) | CD4+ T-cells (peripheral blood cells [3]; [8]): 1.25 ± 0.06 (1E6) | CD8+ T-cells (peripheral blood cells [3]; [8]): 0.86 ± 0.04 (1E6) | Inflammatory monocytes (peripheral blood cells [3]; [8]): 0.26 ± 0.03 (1E6) | N-K-cells (peripheral blood cells [3]; [8]): 0.23 ± 0.02 (1E6) | Resident Monocytes (peripheral blood cells [3]; [8]): 0.21 ± 0.02″ (1E6) | T-cells (peripheral blood cells [3]; [8]): 2.20 ± 0.10 (1E6) | Total Leukocytes (peripheral blood cells [3]; [8]): 6.2 ± 0.22 (1E6) | affinity for Mcl-1 (Mcl-1): high affinity | number of splenocytes (peripheral blood cells [4]): did not reduce
